The values below come from patent US20250163379A1, “METHOD FOR DIFFERENTIATING HEMATOPOIETIC STEM/PROGENITOR CELLS INTO NK CELLS” (HEMACELL BIOTECHNOLOGY INC., priority 2022, published 2025).

Experiment [1] has as its system hematopoietic stem/progenitor cells. As to the kind of experiment: Inducing differentiation of hematopoietic stem/progenitor cells into NK cells (CD3-CD56+). It counts as cell-based. Particulars: GABA pathway activator in initial differentiation medium; control group 75.6%; FIG. 1. The protocol:
(§1) The experiment was carried out according to the following steps: • (1) Inoculating hematopoietic stem/progenitor cells into an initial differentiation medium and culturing at 35-39° C. and 3-7%0CO2 for 5 days; • (2) Continuing culturing cells in NIK differentiation medium I for 3-5 days; • (3) Continuing culturing the cells in NK differentiation medium II; replacing half of the culture medium every 5 to 6 days for 22 to 28 days or until NK cells are obtained. • (4) Basal differentiation medium: DMEM high glucose medium, Ham's F-12Nutrient Mix, GlutaMAX™ supplement medium, heat-inactivated human AB serum, L-glutamic acid, 2-mercaptoethanol, sodium selenite, aminoethanol and L-ascorbic acid. • (5) Initial differentiation medium: basal differentiation medium, SCF (15-25 ng/mL); IL3 (3-7 ng/mL); IL7 (15-25 ng/mL); IL15 (8-12 ng/mL); Flt3-L (8-12 ng/mL); GABA pathway activator. • (6) NK differentiation medium I: basal differentiation medium; SCF (15-25 ng/mL); IL3 (3-7 ng/mL); IL7 (15-25 ng/mL); IL15 (8-12 ng/mL); Flt3-L (8-12 ng/mL). • (7) NK differentiation medium II: basal differentiation medium; SCF (15-25 ng/mL); IL15 (8-12 ng/mL); IL7 (15-25 ng/mL); Flt3-L (8-12 ng/mL).
CD3 is a marker of T cells, CD56 is a marker of NK cells, and the characterization of NK cells is CD3-CD56+. […]

The test system is the same in experiment [2]. The experiment is described as follows: Flow cytometry analysis of induced NK cells for cytotoxic markers (CD16, CD314, CD335, CD336). It counts as cell-based. Particulars: for efficiency of obtaining CD16+CD56+ NK cells: control group 5.45%, FIG. 2; for efficiency of obtaining CD314+ NK cells: control group 10.1%, FIG. 3; for efficiency of obtaining CD335+ NK cells: control group 12.4%, FIG. 4; for efficiency of obtaining CD336+ NK cells: control group 35.7%, FIG. 5. How it is done:
as §1
Flow cytometry analysis of induced NK cells
(1) Collection of NK cells: The cells were centrifuged at 300 g for 5 min; the supernatant was discarded, an equal volume of FACS buffer was added to wash and resuspend the cells, and the cells were centrifuged; the above steps were repeated twice; the cells were centrifuged and the supernatant was discarded, and thereafter, 125 μL of FACS buffer was added to resuspend the cells.
(2) Cell staining: 2.5 μL of labeled antibody was added to the cell suspension (volume ratio of labeled antibody:cell=1:50), the system was mixed well, and allowed to react at room temperature in the dark for 30 min; after centrifugation, the supernatant was discarded; 1 mL of FACS buffer was added to wash and resuspend the cells, the cells were centrifuged, and the above steps were repeated twice; the cells were centrifuged and the supernatant was discarded, and thereafter 250 μL of FACS buffer was added to resuspend the cells, the system was transferred to a Falcon flow tube, and placed on ice; 0.25 μL of DAPI was added before loading, the system was mixed well for later loading and detection.
(3) Preparation of single-color compensation control: The microspheres were mixed evenly by inverting vigorously at least 10 times or pulse vortexing; to each EP tube, 1 drop of UltraCompe Beads was added, then 1 μL of fluorescent antibody conjugate was added, the system was well mixed by blowing-suction with a pipette, and incubated at room temperature in the dark for 30 min; 1 mL of FACS buffer was added to each EP tube, the system was centrifuged at 400 g for 5 min at room temperature; the supernatant was sucked out carefully without removing the beads, and then 250 μL of FACS buffer was added to each test tube; the sample was mixed evenly by flicking or pulse vortexing before analysis.
(4) Detection on the flow cytometer: Before detection, the stained cells were placed on ice to prevent cell aggregation; at least 10,000 cells were tested for each sample; unstained cells were analyzed on the flow cytometer, and appropriate FSC and side scatter SSC as well as the voltage of the fluorescence detector PMT were set. […]

`NC/C=C/C(=O)O` [TACA, trans-4-aminocrotonic acid]: the “efficiency of obtaining NK cells (CD3-CD56+)” value in experiment [1] was 87.2%. In experiment [2], the “efficiency of obtaining CD16+CD56+ NK cells” value amounted to 9.71%, the “efficiency of obtaining CD314+ NK cells” value was 18.4%, the “efficiency of obtaining CD335+ NK cells” value stood at 21.1% and the “efficiency of obtaining CD336+ NK cells” value stood at 48.8%.

For the molecule `NCCCC(=O)O` [GABA, γ-aminobutyric acid], in experiment [1], the “efficiency of obtaining NK cells (CD3-CD56+)” value turned out to be 88.3%. In experiment [2], the “efficiency of obtaining CD16+CD56+ NK cells” value was found to be 5.86%, the “efficiency of obtaining CD314+ NK cells” value stood at 11.0%, the “efficiency of obtaining CD335+ NK cells” value is on record as 18.2% and the “efficiency of obtaining CD336+ NK cells” value is reported as 48.2%.
